Assay results published in US20230303547A1, “N-CYANOPYRROLIDINES WITH ACTIVITY AS USP30 INHIBITORS” (MISSION THERAPEUTICS LIMITED, priority 2020, published 2023).

Key:
TOM20 ubiquitylation = assay: TOM20-ubiquitylation assay; format: cell-based, human
From the text: USP30 is a transmembrane protein located in the outer membrane of mitochondria, which are energy-producing organelles present inside cells. […] The USP30 cellular western blot (WB) assay described herein aims to test the activity of compounds against USP30 in cells using an irreversible activity probe to monitor USP30 activity. Analogously to the cellular western blot assay, target engagement assessment (ex vivo) may be carried out in either brain or kidney tissue samples from compound-dosed animals. To extend target binding knowledge to downstream pharmacodynamics, assessment of TOM20 (an outer mitochondrial membrane protein) ubiquitylation may be made.
Human cell lines can be challenged with mitochondrial depolarizing agents (ionophores (eg. CCCP, valinomycin), mitochondrial complex inhibitors (oligomycin, antimycin A)) to induce ubiquitylation of TOM20, which is then further promoted in the presence of USP30 inhibitors. TOM20 ubiquitylation is subsequently assessed through western blotting of the cell lysates, with TOM20 ubiquitylation adduct detection possible due to an 8 kDa molecule weight increase for each molecule of ubiquitin added, resulting in laddering of a TOM20 immunoreactive band. TOM20-ubiquitylation levels can be quantified using chemiluminescence densitometry of laddered immunoreactive bands.

[1] = tested on: Eurofins CEREP SafetyScreen44 panel; assay: Eurofins CEREP SafetyScreen44 panel; format: binding
From the text: Aside from selectivity over other DUB enzymes, it is important for a drug to have low affinity for other targets, and pharmacological profiling may be performed against panels of targets to assess the potential for, and to minimise, potential off-target effects. Examples of targets for which the compounds of the present invention may be screened against are those of the industry standard Eurofins-Cerep SafetyScreen44 panel, which includes 44 targets as a representative selection of GPCR receptors, transporters, ion channels, nuclear receptors, and kinase and non-kinase enzymes. Preferably, compounds of the invention have insignificant affinity against targets of this screening panel. Further examples of targets for which the compounds of the present invention may be screened against are kinases of the Thermo Fisher SelectScreen kinase profiling panel, which includes 39 targets as a representative selection of kinase enzymes. Preferably, compounds of the invention have insignificant affinity against targets of this screening panel. Additionally, examples of a particular enzyme class for which the compounds of the present invention may be screened against are the cathepsins (e.g. cathepsin A, B, C, H, K, L, L2, S, V and Z). Preferably, compounds of the invention have good selectivity for USP30 over one or more of these enzymes. […]

[2] = tested on: P-glycoprotein (MDR1), human; assay: MDR1-MDCK flux assay; format: in vitro ADME; conditions: dog, read-out: MDR1-MDCK Effective Efflux Ratio
From the text: The treatment of CNS disorders, including Alzheimer’s disease, Parkinson’s disease, and other disorders described herein, requires drug molecules to target the brain, which requires adequate penetration of the blood brain barrier. […] The probability that a compound can cross the blood brain barrier may be measured by an in vitro flux assay utilizing a MDR1-MDCK cell monolayer (Madin-Darby Canine Kidney cells transfected with MDR-1 resulting in overexpression of the human efflux transporter P-glycoprotein). Additionally, exposure may also be measured directly in brain and plasma using in vivo animal models.
MDR1-MDCK (Madin-Darby Canine Kidney cell monolayer) (in vitro) flux assay.

WT-MDCK in vitro flux = format: in vitro ADME; conditions: dog
From the text: WT-MDCK (wild-type) in vitro flux.

hERG potassium channel = hERG potassium channel (Homo sapiens (Human), UniProt Q12809); assay: hERG potassium channel current in CHO cells; format: cell-based; conditions: 30 µM, stably expressed CHO cells
Description: The hERG predictor assay provides valuable information about the possible binding of test compounds to the potassium channel and potential QT prolongation on […]. Inhibition of the hERG current causes QT interval prolongation resulting in potentially fatal ventricular tachyarrhythmia (Torsades de Pointes). Typically, assay data may be generated from an automated patch-clamp assay platform.
Example 2 was evaluated for effects on the hERG potassium channel, in stably expressed CHO cells at concentrations between 0.01 and 30 µM. Example 2 produced maximum inhibition value of 35% of the hERG current amplitude at 30 µM indicating little propensity for affecting the QT interval.

[3] = tested on: Salmonella typhimurium strains TA98, TA100, TA1535 and TA97a and the Escherichia Coli strain WP2 uvrA pKM101; assay: Bacterial reverse mutation assay (Ames); format: cell-based; conditions: up to 5000 µg/plate with and without metabolic activation
Description: The bacterial reverse mutation assay (Ames Test) may be used to evaluate the mutagenic properties of compounds of the invention, commonly by using the bacterial strain Salmonella typhimurium, which is mutant for the biosynthesis of the amino acid histidine.
(§1) Example 2 was assessed in the bacterial reverse mutation assay (Ames) and in vitro micronucleus assay. All in vitro tests were conducted with and without exogenous metabolic activation using concentrations up to those limited by cytotoxicity or insolubility.

TK6 cells = assay: In vitro micronucleus assay; format: cell-based; conditions: 27 hours recovery
Description: The micronucleus assay may be used to determine if a compound is genotoxic by evaluating the presence of micronuclei. Micronuclei may contain chromosome fragments produced from DNA breakage (clastogens) or whole chromosomes produced by disruption of the mitotic apparatus (aneugens).
as §1
Induction of chromosome damage was assessed using the in vitro micronucleus assay in TK6 cells. Example 2 was negative for induction of micronuclei when incubated for 3 hours in the presence of exogenous metabolic activation followed by 27 hours recovery, and also when incubated for 27 hours in the absence of exogenous metabolic activation followed by 27 hours recovery.

hERG potassium channel, sequence (Q12809 whole entry): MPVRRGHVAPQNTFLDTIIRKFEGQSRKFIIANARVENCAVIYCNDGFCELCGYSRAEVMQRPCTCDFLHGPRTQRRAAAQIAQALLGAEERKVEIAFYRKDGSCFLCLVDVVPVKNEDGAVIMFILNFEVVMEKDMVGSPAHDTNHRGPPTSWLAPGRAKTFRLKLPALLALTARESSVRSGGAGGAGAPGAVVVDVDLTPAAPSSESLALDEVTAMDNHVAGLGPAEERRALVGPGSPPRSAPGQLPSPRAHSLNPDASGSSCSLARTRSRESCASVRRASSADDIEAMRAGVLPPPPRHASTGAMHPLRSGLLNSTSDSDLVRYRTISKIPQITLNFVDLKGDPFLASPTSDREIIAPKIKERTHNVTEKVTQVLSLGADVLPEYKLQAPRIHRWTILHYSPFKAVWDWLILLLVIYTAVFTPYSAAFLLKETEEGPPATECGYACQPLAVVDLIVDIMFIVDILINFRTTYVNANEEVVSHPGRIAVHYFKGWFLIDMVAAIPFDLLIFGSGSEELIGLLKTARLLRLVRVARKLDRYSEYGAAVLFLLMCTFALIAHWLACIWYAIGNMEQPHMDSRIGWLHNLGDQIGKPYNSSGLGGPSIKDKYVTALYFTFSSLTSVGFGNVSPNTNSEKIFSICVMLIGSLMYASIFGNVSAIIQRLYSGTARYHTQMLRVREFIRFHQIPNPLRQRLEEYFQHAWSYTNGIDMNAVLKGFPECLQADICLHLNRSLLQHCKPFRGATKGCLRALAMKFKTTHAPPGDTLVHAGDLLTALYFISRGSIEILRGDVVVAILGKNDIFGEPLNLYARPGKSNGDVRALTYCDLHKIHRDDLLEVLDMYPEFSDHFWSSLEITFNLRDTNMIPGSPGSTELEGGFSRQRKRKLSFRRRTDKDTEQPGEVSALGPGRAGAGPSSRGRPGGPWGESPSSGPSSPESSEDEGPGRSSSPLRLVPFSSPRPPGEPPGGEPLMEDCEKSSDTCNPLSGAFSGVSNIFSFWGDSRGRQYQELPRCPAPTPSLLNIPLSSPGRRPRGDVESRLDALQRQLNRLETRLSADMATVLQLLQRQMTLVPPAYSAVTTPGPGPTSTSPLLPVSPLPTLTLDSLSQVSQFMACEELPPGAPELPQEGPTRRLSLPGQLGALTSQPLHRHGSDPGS

| Structure (SMILES) | TOM20-Ub 1.5-fold gain, Antimycin A/oligomycin mitophagy trigger EC1.5x (TOM20 ubiquitylation) [µM] | affinity for targets in this assay [1] | efflux ratio [2] | efflux ratio (WT-MDCK in vitro flux) | Papp A→B (WT-MDCK in vitro flux; A-B) [×10⁻⁶ cm/s] | maximum inhibition of the hERG current amplitude (hERG potassium channel) [%] | induction of mutations in reverse mutation assay [3] | induction of micronuclei (TK6 cells; 3 hours in the presence of exogenous metabolic activation) | induction of micronuclei (TK6 cells; 27 hours in the absence of exogenous metabolic activation) |
| --- | --- | --- | --- | --- | --- | --- | --- | --- | --- |
| C[C@@H]1C[C@@H](NC(=O)c2ncc(-c3cc(C#N)ccc3OC3CC3)o2)CN1C#N [Example 1, 5-(5-cyano-2-cyclopropoxyphenyl)-N-((3R,5R)-1-cyano-5-methylpyrrolidin-3-yl)oxazole-2-carboxamide] | 0.006 | low affinity |  |  |  |  |  |  |  |
| COC[C@@H]1C[C@@H](NC(=O)c2ncc(-c3cc(C#N)ccc3OC3CC3)o2)CN1C#N [Example 2, 5-(5-cyano-2-cyclopropoxyphenyl)-N-((3R,5S)-1-cyano-5-(methoxymethyl)pyrrolidin-3-yl)oxazole-2-carboxamide] | 0.007 |  | 15 | 0.7 | 10.7 | 35 | did not induce mutations | negative | negative |
